According to paper PMC8297402, “Trifluoromethyl-substituted 3,5-bis(arylidene)-4-piperidones as potential anti-hepatoma and anti-inflammation agents by inhibiting NF-кB activation” (Journal of Enzyme Inhibition and Medicinal Chemistry, 2021):

Experiments:
SMMC-7721 = assay: Modified MTT cytotoxicity assay, SMMC-7721; format: cell-based, Human; conditions: for IC50: Homo sapiens, SMMC-7721, 24 h, MTT, 24 h incubation, three replicates; for SI (selectivity index) SMMC-7721: quotient of IC50 for normal (LO2) and malignant (SMMC-7721) cells
Experimental: (§1) The HepG2, SMMC-7721, and LO2 cell lines were maintained at 37 °C, 5% humidified CO2, and 95% atmosphere. Dulbecco's Modified Eagle (DMEM) medium containing 10% foetal bovine serum (FBS) was used for culturing the HepG2 cell line; meanwhile, Roswell Park Memorial Institute (RPMI) 1640 medium containing 10% FBS was used for culturing other cell lines (SMMC-7721, LO2). The HepG2, SMMC-7721 and LO2 cells were seeded in a 96-well plate in 200 μL of medium per well at a density of approximately 8 × 10^3 cells/well and cultured for 24 h, followed by incubation in an incubator of indicated compounds with successive concentrations (10, 5, 2.5, 1.25, 0.625, 0.3125 μg/mL) for 24 h. In the control group, cells were only cultured with culture media. After the media were removed, 20 μL of MTT (5 mg/mL) was added, then cells were incubated for 4 h at 37 °C. […] GraphPad Prism 5 software was used to calculate their IC50 values. Every IC50 value was the average of three replicates. Doxorubicin (DOX) and curcumin were used as positive controls.

A2780 = assay: Modified MTT cytotoxicity assay, A2780; conditions: for IC50: Homo sapiens, A2780, read-out: Cytotoxicity IC50 A2780, MTT, ovarian cancer cell line; for SI (selectivity index) A2780: quotient of IC50 for normal (HHL-5) and malignant (A2780) cells
Experimental: (§3) To further verify the anti-tumour activity, one human non-small cell lung cancer cell line (A549), one human ovarian cancer cell line (A2780), and one human normal heptical cell line (HHL-5) were screened by BAPs (4–30) using a modified MTT assay (Supporting Information). DOX and curcumin were selected as positive controls.
(§4) The optical density (OD) value of each well was measured on a
(§5) multi-well plate reader (TECAN, Mӓnnedorf, Switzerland ) at 570 nm.
(§6) Every IC 50 value was the average of three replicates.
(§7) Doxorubicin (DOX) and Curcumin were used as positive controls.

RAW264.7 cell = assay: MTT toxicity pre-experiment on RAW264.7 macrophagocyte; format: cell-based, mouse; conditions: Mus musculus, RAW264.7, BAPs 5 μM, read-out: Survival rate RAW264.7 cell
Experimental: Lipopolysaccharide (LPS) is a key constituent of Gram-negative bacterial endotoxin, which is used to induce an inflammatory response in corresponding inflammatory cells. TNF-α and IL-6 are two kinds of representative pro-inflammatory factors, which produced by LPS-stimulated RAW264.7 macrophage. In our pre-experiments, the toxicity against RAW264.7 macrophagocyte for all title compounds was tested by the MTT assay, and the results were listed in Table 2. The survival rates were above 80% for all BAPs (4-30) at the concentration of 5.0 μM.

A549 = assay: Modified MTT cytotoxicity assay, A549; conditions: for IC50: Homo sapiens, A549, read-out: Cytotoxicity IC50 A549, MTT, non-small cell lung cancer cell line; for SI (selectivity index) A549: quotient of IC50 for normal (HHL-5) and malignant (A549) cells
TNF-α = assay: ELISA of TNF-α release in LPS-stimulated RAW264.7 cells; format: cell-based, mouse; conditions: Mus musculus, RAW264.7, ELISA, read-out: Inhibition rate TNF-α; for inhibition at 5 µM: RAW264.7, BAPs (5 μM) + LPS (1 μg/mL)
Experimental: (§2) We tested by inhibiting the secretion of TNF-α and IL-6 to better evaluated the anti-inflammatory effects of BAPs. […] Under the stimulation of LPS (1.0 μg/mL) with RAW264.7 cells, the release of TNF-α and IL-6 was detected. Besides, after treated with BAPs (5.0 μM) and LPS (1.0 μg/mL), the release of TNF-α and IL-6 was measured with an ELISA kit (eBioScience, San Diego, California), respectively. In general terms, pyrrolidine dithiocarbamate (PDTC, 30 μM) or BAP (5.0 μM) was used to pretreat cells for 2 h, respectively. Then, LPS (1.0 μg/mL) was added and cells were incubated for another 22 h. Finally, the culture media were centrifuged at 1000 rpm for 10 min, and the expression levels of TNF-α and IL-6 were determined by ELISA.

[1] = Modified MTT cytotoxicity assay, normal heptical cell line HHL-5; conditions: human, HHL-5 cells (normal hepatic cell line)
Experimental: as §3, §4, §5, §6, §7

[2] = Modified MTT cytotoxicity assay, normal heptical cell line LO2; format: cell-based, human; conditions: human, LO2 cells (normal hepatic cell line), 24 h incubation
Experimental: as §1

HepG2 = assay: Modified MTT cytotoxicity assay, HepG2; format: cell-based, Human; conditions: for IC50: Homo sapiens, HepG2, 24 h, MTT, 24 h incubation, three replicates, read-out: Cytotoxicity IC50 HepG2; for SI (selectivity index) HepG2: quotient of IC50 for normal (LO2) and malignant (HepG2) cells
Experimental: as §1

IL-6 = assay: ELISA of IL-6 release in LPS-stimulated RAW264.7 cells; format: cell-based, mouse; conditions: Mus musculus, RAW264.7, ELISA, read-out: Inhibition rate IL-6; for inhibition at 5 µM: RAW264.7, BAPs (5 μM) + LPS (1 μg/mL)
Experimental: as §2

[3] = RAW264.7, PDTC 30 μM + LPS (1 μg/mL)

SMILES	IC50 (SMMC-7721)	IC50 (A2780)	viability at 5 µM (RAW264.7 cell)	IC50 (A549)	inhibition at 5 µM (TNF-α)	IC50 [1]	IC50 at 24 h [2]	IC50 (HepG2)	inhibition at 5 µM (IL-6)	SI (selectivity index) SMMC-7721 (SMMC-7721)	SI (selectivity index) A2780 (A2780)	SI (selectivity index) A549 (A549)	SI (selectivity index) HepG2 (HepG2)	inhibition at 30 µM (TNF-α; [3])	inhibition at 30 µM (IL-6; [3])
Cc1ccc(S(=O)(=O)N2C/C(=C\c3ccccc3C(F)(F)F)C(=O)/C(=C/c3ccccc3C(F)(F)F)C2)cc1 [BAP 5]	19.7 ± 0.1 µM	4.85 ± 0.47 µM	93.3 ± 1.7%	14 ± 1.99 µM	46.2 ± 1%	24.9 ± 0.1 µM	36.2 ± 2.3 µM	17.5 ± 0.1 µM	49.6 ± 1.1%	–	–	–	–	–	–
O=C1/C(=C/c2ccccc2C(F)(F)F)CN(S(=O)(=O)c2ccc(F)cc2)C/C1=C\c1ccccc1C(F)(F)F [BAP 8]	8.3 ± 0.2 µM	1.44 ± 0.54 µM	82.1 ± 1.9%	13.5 ± 1.39 µM	46.8 ± 4.2%	11.8 ± 0.2 µM	13.8 ± 1.1 µM	4 ± 0.2 µM	51.3 ± 3.3%	–	–	–	–	–	–
O=C1/C(=C/c2ccccc2C(F)(F)F)CN(S(=O)(=O)c2ccc(Cl)cc2)C/C1=C\c1ccccc1C(F)(F)F [BAP 9]	10.4 ± 0.3 µM	0.62 ± 0.07 µM	92.8 ± 4.2%	1.86 ± 0.61 µM	47.1 ± 6.4%	9.3 ± 0.1 µM	30.9 ± 0.3 µM	11 ± 0.3 µM	38.2 ± 2.5%	–	–	–	–	–	–
N#Cc1ccc(S(=O)(=O)N2C/C(=C\c3ccccc3C(F)(F)F)C(=O)/C(=C/c3ccccc3C(F)(F)F)C2)cc1 [BAP 11]	12 ± 0.2 µM	32.3 ± 7.69 µM	84.2 ± 2%	64.2 ± 10.2 µM	58.9 ± 3.2%	15.5 ± 0.3 µM	13 ± 0.1 µM	9 ± 0.2 µM	59.1 ± 5.2%	1.1	0.5	0.2	1.4	–	–
Cc1ccc(S(=O)(=O)N2C/C(=C\c3cccc(C(F)(F)F)c3)C(=O)/C(=C/c3cccc(C(F)(F)F)c3)C2)cc1 [BAP 14]	5.6 ± 0.1 µM	0.14 ± 0.03 µM	89.2 ± 1.8%	0.23 ± 0.04 µM	60.2 ± 1.2%	9.4 ± 0.2 µM	15.9 ± 0.1 µM	11.1 ± 0.2 µM	66.3 ± 2%	–	–	–	–	–	–
O=C1/C(=C/c2cccc(C(F)(F)F)c2)CN(S(=O)(=O)c2ccc(F)cc2)C/C1=C\c1cccc(C(F)(F)F)c1 [BAP 17]	4.8 ± 0.3 µM	0.14 ± 0.01 µM	85.1 ± 2%	0.28 ± 0.01 µM	65.6 ± 1.2%	3.5 ± 0.5 µM	19.5 ± 0.1 µM	3.4 ± 0.2 µM	67.6 ± 2.2%	–	–	–	–	–	–
O=C1/C(=C/c2cccc(C(F)(F)F)c2)CN(S(=O)(=O)c2ccc(Cl)cc2)C/C1=C\c1cccc(C(F)(F)F)c1 [BAP 18]	13.9 ± 0.1 µM	0.19 ± 0.02 µM	85.7 ± 4.2%	0.15 ± 0.02 µM	50.6 ± 3.2%	2.2 ± 0.1 µM	14.1 ± 0.1 µM	5.2 ± 0.1 µM	46.2 ± 2.1%	–	–	–	–	–	–
N#Cc1ccc(S(=O)(=O)N2C/C(=C\c3cccc(C(F)(F)F)c3)C(=O)/C(=C/c3cccc(C(F)(F)F)c3)C2)cc1 [BAP 20]	4.3 ± 0.2 µM	0.15 ± 0.02 µM	83.7 ± 1.3%	0.17 ± 0.002 µM	75.2 ± 2.7%	2.4 ± 0.4 µM	17.4 ± 0.1 µM	0.9 ± 0.1 µM	77.7 ± 1.5%	4.0	16.0	14.1	19.3	–	–
O=C1/C(=C/c2ccc(C(F)(F)F)cc2)CN(S(=O)(=O)c2ccccc2)C/C1=C\c1ccc(C(F)(F)F)cc1 [BAP 22]	~8.5 µM	0.17 ± 0.06 µM	89.4 ± 7.8%	0.18 ± 0.02 µM	65.2 ± 1.3%	7.9 ± 0.1 µM	18.2 ± 0.2 µM	~1.8 µM	68.3 ± 1.3%	–	–	–	–	–	–
O=C1/C(=C/c2ccc(C(F)(F)F)cc2)CN(S(=O)(=O)c2ccc(Br)cc2)C/C1=C\c1ccc(C(F)(F)F)cc1 [BAP 28]	1.9 ± 0.2 µM	0.18 ± 0.04 µM	84 ± 3.6%	0.2 ± 0.02 µM	> 70%	20.7 ± 0.5 µM	14.2 ± 0.3 µM	1.7 ± 0.2 µM	> 70%	7.5	115.0	103.5	8.4	–	–
COc1cc(/C=C/C(=O)CC(=O)/C=C/c2ccc(O)c(OC)c2)ccc1O [Curcumin, reference compound]	~19.5 µM	44 ± 9.82 µM	–	32 ± 3.55 µM	–	24.2 ± 0.5 µM	29.1 ± 2.1 µM	~15.3 µM	–	1.5	0.5	0.8	1.9	–	–
S=C(S)N1CCCC1 [PDTC, pyrrolidine dithiocarbamate, reference compound]	–	–	–	–	–	–	–	–	–	–	–	–	–	~68.2%	~59.1%
